Measurements reported in the supplement of paper PMC10307832.

Assays:
Assay in all cases: relative viability (nuclei count vs DMSO), 5 days (fraction); higher = more cells survive
[1] = compound: Cn1nnc2c(C(N)=O)ncn2c1=O [Temozolomide] + CC(C)C[C@H](NC(=O)[C@H](Cc1ccccc1)NC(=O)c1cnccn1)B(O)O [Bortezomib] (partner 0.002 µM)
Procedure, shortened: (§1)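 After 5 days of treatment, lung cancer cells in 1536-well plates were fixed and stained in a single step (final 0.05% Triton X-100, 1% formaldehyde, 1 ug/ml Hoechst) and their nuclei counted on 4× images. Treatment had been applied by pin tool the day after seeding as one drug alone or as a fixed anchor-drug dose with five library-drug doses (not always all listed) in √10 steps. Relative viability is the nuclei count of treated wells divided by that of vehicle wells, and values are medians of duplicate plates.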

AZD5582 + Alpelisib = compound: C[C@@H](C(=O)N[C@@H](C1CCCCC1)C(=O)N2CCC[C@H]2C(=O)N[C@@H]3[C@@H](CC4=CC=CC=C34)OCC#CC#CCO[C@@H]5CC6=CC=CC=C6[C@@H]5NC(=O)[C@@H]7CCCN7C(=O)[C@H](C8CCCCC8)NC(=O)[C@H](C)NC)NC [AZD5582] + Cc1nc(NC(=O)N2CCC[C@H]2C(N)=O)sc1-c1ccnc(C(C)(C)C(F)(F)F)c1 [Alpelisib] (partner 2 µM)
Procedure, shortened: as §1

AZD5582 + Olaparib = compound: C[C@@H](C(=O)N[C@@H](C1CCCCC1)C(=O)N2CCC[C@H]2C(=O)N[C@@H]3[C@@H](CC4=CC=CC=C34)OCC#CC#CCO[C@@H]5CC6=CC=CC=C6[C@@H]5NC(=O)[C@@H]7CCCN7C(=O)[C@H](C8CCCCC8)NC(=O)[C@H](C)NC)NC [AZD5582] + O=C(c1cc(Cc2n[nH]c(=O)c3ccccc23)ccc1F)N1CCN(C(=O)C2CC2)CC1 [Olaparib] (partner 8 µM)
Procedure, shortened: as §1

[2] = compound: Cn1nnc2c(C(N)=O)ncn2c1=O [Temozolomide] + C[C@]1(O)C[C@@H](c2nc(-c3ccc4ccc(-c5ccccc5)nc4c3)c3c(N)nccn32)C1 [Linsitinib] (partner 1 µM)
Procedure, shortened: as §1

Cell Line | relative viability ([1]; first compound 0.2 µM) | relative viability ([1]; first compound 0.6325 µM) | relative viability ([1]; first compound 2 µM) | relative viability ([1]; first compound 6.325 µM) | relative viability ([1]; first compound 20 µM) | relative viability (AZD5582 + Alpelisib; first compound 0.001581 µM) | relative viability (AZD5582 + Alpelisib; first compound 0.005 µM) | relative viability (AZD5582 + Alpelisib; first compound 0.01581 µM) | relative viability (AZD5582 + Alpelisib; first compound 0.05 µM) | relative viability (AZD5582 + Olaparib; first compound 0.001581 µM) | relative viability (AZD5582 + Olaparib; first compound 0.005 µM) | relative viability (AZD5582 + Olaparib; first compound 0.01581 µM) | relative viability (AZD5582 + Olaparib; first compound 0.05 µM) | relative viability ([2]; first compound 0.2 µM) | relative viability ([2]; first compound 0.6325 µM) | relative viability ([2]; first compound 2 µM) | relative viability ([2]; first compound 6.325 µM) | relative viability ([2]; first compound 20 µM)
LOU-NH91 | 0.487 | 0.514 | 0.565 | 0.543 | 0.456 | 0.752 | 0.747 | 0.787 | 0.775 | 0.875 | 0.945 | 0.928 | 0.903 | 0.534 | 0.955 | 1.01 | 0.932 | 0.505
LU99A | 1.28 | 1.17 | 1.07 | 1.06 | 1.01 | 0.554 | 0.594 | 0.499 | 0.611 | 0.279 | 0.264 | 0.213 | 0.266 | 0.595 | 0.514 | 0.551 | 0.564 | 0.572
NCI-H358 |  |  |  |  |  | 0.725 | 1.02 | 0.89 | 1.02 | 0.56 | 0.702 | 0.616 | 0.791 | 0.576 | 0.728 | 0.854 | 0.797 | 0.617
NCI-H522 |  |  |  |  |  |  |  |  |  | 0.554 | 0.628 | 0.641 | 0.674 |  |  |  |  | 
NCI-H1395 |  |  |  |  |  | 1.08 | 1.19 |  | 1.39 | 0.445 | 0.433 |  | 0.464 | 0.821 | 1.05 | 1.31 | 0.978 | 1.04
NCI-H1563 | 0.91 | 0.862 | 0.911 | 0.878 | 0.833 | 1.02 | 0.893 | 0.858 | 1.01 |  |  |  |  | 1.14 | 1.26 | 1.39 | 1.23 | 1.22
NCI-H1648 |  |  |  |  |  |  |  |  |  | 0.65 | 0.735 |  | 0.672 |  |  |  |  | 
NCI-H1650 | 0.199 | 0.175 | 0.205 | 0.167 | 0.196 |  |  |  |  | 0.758 | 0.668 | 0.813 | 0.834 |  |  |  |  | 
NCI-H1793 |  |  |  |  |  | 0.637 | 0.856 | 0.69 | 0.887 | 0.674 | 1.08 | 0.75 | 1.23 |  | 0.884 | 1.15 | 0.846 | 0.839
NCI-H1944 |  |  |  |  |  | 0.834 | 1.05 | 0.793 | 1.11 | 0.379 | 0.403 | 0.365 | 0.446 | 0.662 | 1.17 | 1.26 | 1.11 | 0.992
NCI-H2170 |  |  |  |  |  | 0.764 | 0.809 | 0.867 | 0.969 | 0.561 | 0.543 | 0.628 | 0.688 |  |  |  |  | 
NCI-H2342 |  |  |  |  |  |  |  |  |  | 0.325 | 0.361 | 0.463 | 0.438 |  |  |  |  | 
SK-MES-1 |  |  |  |  |  | 0.773 | 0.995 | 0.808 | 0.947 | 0.653 | 0.515 | 0.792 | 0.605 | 1.14 | 1.09 | 1.07 | 1.13 | 1.05
SW 900 |  |  |  |  |  |  |  |  |  | 0.667 | 0.656 | 0.79 | 0.495 |  |  |  |  | 
